From patent publication US20210046195A1, “FORMULATION AND METHOD OF PREPARATION” (GE HEALTHCARE AS, priority 2018, published 2021)
Bridge positions count the residues as written; N and C are the ends. Cy5∗∗ = not defined here

How the values were obtained:
[1] = biological target: T1, mouse cMet/Fc chimera (Mus musculus, UniProt P16056); experiment: In vitro fluorescence polarisation assay, mouse cMet; format: binding; details: dye-labelled peptide 20 nM; mouse cMet/Fc chimera 0-150 nM (tested range)
T1 construct: Fc (immunoglobulin Fc fusion partner); purchased R&D Systems
T1 sequence (P16056 with tags, fused parts or gaps limits assumed): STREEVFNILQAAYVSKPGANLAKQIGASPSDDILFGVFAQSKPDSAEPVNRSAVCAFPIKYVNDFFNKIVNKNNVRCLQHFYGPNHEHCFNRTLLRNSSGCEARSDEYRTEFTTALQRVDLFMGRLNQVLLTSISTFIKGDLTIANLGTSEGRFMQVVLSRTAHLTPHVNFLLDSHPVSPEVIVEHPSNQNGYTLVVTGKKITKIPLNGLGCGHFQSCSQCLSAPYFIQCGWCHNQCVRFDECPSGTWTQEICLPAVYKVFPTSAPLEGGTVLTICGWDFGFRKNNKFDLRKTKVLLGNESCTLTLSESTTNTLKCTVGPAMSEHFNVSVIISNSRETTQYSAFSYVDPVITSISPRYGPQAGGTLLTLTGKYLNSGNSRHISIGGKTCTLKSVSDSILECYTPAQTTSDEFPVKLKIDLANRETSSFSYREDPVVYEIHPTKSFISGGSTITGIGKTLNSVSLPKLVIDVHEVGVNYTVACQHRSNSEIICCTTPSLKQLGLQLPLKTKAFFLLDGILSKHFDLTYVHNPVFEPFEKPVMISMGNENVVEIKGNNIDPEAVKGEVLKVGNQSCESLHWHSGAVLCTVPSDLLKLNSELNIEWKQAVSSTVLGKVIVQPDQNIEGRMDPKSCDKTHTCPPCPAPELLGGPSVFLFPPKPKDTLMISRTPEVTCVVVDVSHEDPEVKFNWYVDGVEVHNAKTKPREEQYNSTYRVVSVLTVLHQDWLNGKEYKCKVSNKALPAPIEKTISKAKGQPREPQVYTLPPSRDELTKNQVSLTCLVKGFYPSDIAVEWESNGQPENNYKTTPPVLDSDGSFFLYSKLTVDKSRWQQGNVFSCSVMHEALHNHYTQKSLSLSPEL
T1 sequence (P16056 25-306 limits assumed, change not shown): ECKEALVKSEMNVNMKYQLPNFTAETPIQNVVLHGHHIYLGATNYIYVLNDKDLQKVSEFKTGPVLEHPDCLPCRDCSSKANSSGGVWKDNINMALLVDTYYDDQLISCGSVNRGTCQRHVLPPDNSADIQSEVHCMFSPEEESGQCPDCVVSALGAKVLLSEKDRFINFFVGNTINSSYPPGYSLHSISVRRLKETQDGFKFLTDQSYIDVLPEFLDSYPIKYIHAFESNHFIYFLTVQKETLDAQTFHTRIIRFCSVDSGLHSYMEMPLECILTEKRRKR
Experimental: The principle of the fluorescence polarisation method can briefly be described as follows:
Monochromatic light passes through a […] polarizing filter and excites fluorescent molecules in the sample. Only those molecules that oriented properly in the vertically polarized plane adsorb light, become excited, and subsequently emit light. The emitted light is measured in both horizontal and vertical planes. The anisotropy value (A), is the ratio between the light intensities following the equation:
A=(Intensity with horizontal polarizer−Intensity with vertical polarizer)/(Intensity with horizontal polarizer+2* Intensity with vertical polarizer).
The fluorescence anisotropy measurements were performed in 384-well microplates in a volume of 10 μL in binding buffer (PBS, 0.01% Tween-20, pH 7.5) using a Tecan Safire fluorescence polarisation plate reader (Tecan, US) at ex646/em678 nm. The concentration of dye-labelled peptide was held constant (20 nM) and the concentrations of the human or mouse cMet/Fc chimera (R&D Systems) or Semaphorin 6A (R&D Systems) were varied from 0-150 nM. Binding mixtures were equilibrated in the microplate for 10 min at 30° C. The observed change in anisotropy was fit to the equation: […]

[2] = test system: HCT-15 tumours; experiment: In vivo testing in HCT-15 tumour-bearing nude mice, fluorescence imaging through laparoscope; design: species or system BALB c/A nude (Bom) mice; details: 1 nmol per animal i.v.; excised tumour slice against normal colon
Source text: 54 Female BALB c/A nude (Bom) mice were used in the study. The use of the animals was approved by the local ethics committee. BALB c/A nude is an inbred immunocompromised mouse strain with a high take rate for human tumours as compared to other nude mice strains. The mice were 4 weeks old upon arrival and with a body weight of approx. 20 grams at the start of the study. The animals were housed in individually ventilated cages (IVC, Scanbur BK) with HEPA filtered air. The animals had ad libitum access to “Rat and Mouse nr. 3 Breeding” diet (Scanbur BK) and tap water acidified by addition of HCl to a molar concentration of 1 mM (pH 3.0).
The colon cancer cell HCT-15 is derived from human colon carcinomas and is reported to express cMet according to Zeng et al [Clin. Exp. Metastasis, 21, 409-417. (2004)]. The cell line was proven to be tumorigenic when inoculated subcutaneously into nude mice [Flatmark et al, Eur. J. Cancer 40, 1593-1598 (2004)]. […]
Imaging was performed through a clinical laparoscope adapted to use a light source to excite the reporter and a filtering system to extract the fluorescence component. […]
Standard exposure time for colon imaging was 10 s. […] The images were visually scored using the standard scoring system employed for receiver operating characteristic analysis.

Substance	binding to mouse cMet [1]	tumour to normal ratio [2]	visual identification of tumour against background [2]
Cys4-16, 6-14; Ac-Ala-Gly-Ser-Cys-Tyr-Cys-Ser-Gly-Pro-Pro-Arg-Phe-Glu-Cys-Trp-Cys-Tyr-Glu-Thr-Glu-Gly-Thr-Gly-Gly-Gly-Lys(Cy5)-NH2 (Ac-AGSCYCSGPPRFECWCYETEGTGGGK(Cy5)-NH2; disulfide 6-14, 4-16) [Compound 3]	no binding	–	–
Ac-TGECTCPYWEFRPCECGSYSGAGGGK(ϵ-Cy5**)-NH2 (Ac-TGECTCPYWEFRPCECGSYSGAGGGK(Cy5∗∗)-NH2; cysteine pairing not given here; reading uncertain; also: printed as Ac-TGECTCPYWEFRPCECGSYSGAGGGK(ϵ-Cy5**)-NH2) [Compound 7, negative control]	–	did not discriminate between tumour and background	nothing was discernible against background
